Several values for one entry are separate records, joined by “and”; a condition that tells them apart may be missing. Identical values can stand only once.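 Interpolation was linear, between the two tested concentrations surrounding the appropriate level; five concentrations were tested over 48 hours in 96-well plates. GI50: concentration for 50% inhibition of growth. TGI: total growth inhibition.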
Tests used:
Assay in all cases: NCI tumour cell line growth inhibition, 48 h
[1] = system: DMS 273 small cell lung
[2] = system: DLD-1 colon
[3] = system: SNB-78 CNS
[4] = system: M19-MEL melanoma
[5] = system: LXFL 529 NSCLC
[6] = system: RXF-631 renal
[7] = system: KM20L2 colon
[8] = system: XF 498 CNS
[9] = system: MDA-N
[10] = system: P388/ADR leukemia
[11] = system: P388 leukemia

SMILES | TGI [1] | TGI [2] | TGI [3] | TGI [4] | TGI [5] | TGI [6] | TGI [7] | TGI [8] | TGI [9] | other results
CCOc1ccc(NCC2CC/C(=C\c3ccccc3OC)C2=O)cc1 (stereo unspecified) | 6.76 µM | 13.6 µM | 44.3 µM | 26.3 µM | 6.5 µM | 42.5 µM | 28.4 µM |  |  | 
Cc1cccc(C)c1N1C(=O)C(=O)C(c2nc3ccccc3s2)/C(=N/NC(=O)c2ccccc2O)C1=O (stereo unspecified) | 22.5 µM | > 100 µM | > 100 µM | > 100 µM | > 100 µM | > 100 µM | > 100 µM | > 100 µM |  | 
Nc1ccc(COC(O)CN2CCCCC2)cc1[N+](=O)[O-] (stereo unspecified) |  |  |  |  |  |  |  |  | > 100 µM | 
Cc1ccc(S(=O)(=O)c2ccc(C)cc2[N+](=O)[O-])cc1 | > 100 µM | > 100 µM | > 100 µM | > 100 µM | > 100 µM |  | > 100 µM |  |  | 
CCC1(OC(=O)CN)C(=O)OCc2c1cc1n(c2=O)Cc2cc3ccccc3nc2-1 (stereo unspecified) |  | > 100 µM | > 100 µM | 0.237 µM | 6.06 µM |  |  | 0.431 µM |  | GI50 [3]: 0.53 µM; GI50 [8]: 0.0328 µM; GI50 [4]: 0.0174 µM; GI50 [5]: 0.135 µM; GI50 [7]: 0.056 µM; GI50 [9]: 0.122 µM and 0.36 µM
CC(C(=O)c1ccccc1)C1(O)C(=O)Nc2ccc(Cl)cc21 (stereo unspecified) |  | > 100 µM | > 100 µM | 31.6 µM | > 100 µM |  | > 100 µM | > 100 µM |  | 
Cc1c(N)nc(C(CC(N)=O)NCC(N)C(N)=O)nc1C(=O)NC(C(=O)NC(C)C(O)C(C)C(=O)NC(C(=O)NCCc1nc(-c2nc(C(=O)NCCCNC(C)c3ccccc3)cs2)cs1)C(C)O)C(OC1OC(CO)C(O)C(O)C1OC1OC(CO)C(O)C(OC(N)=O)C1O)c1cnc[nH]1 (stereo unspecified) | 4.95 µM | 50 µM | > 50 µM | 50 µM | 50 µM |  | 50 µM | 50 µM | > 100 µM | GI50 [9]: > 100 µM
Cc1c(Cl)cccc1NC(=O)/C=C/c1ccccc1 |  |  |  |  |  |  |  |  | > 100 µM | 
CC(C)c1cccc(O)c(=O)c1 | > 48.4 µM | > 100 µM | > 100 µM | > 59.3 µM | > 100 µM | > 100 µM | > 100 µM | > 100 µM |  | 
CC1=NOC(=O)/C1=C/c1ccc([N+](=O)[O-])cc1 | > 100 µM | > 100 µM | > 100 µM |  |  | > 100 µM | > 100 µM | > 100 µM |  | 
C=CCC1(C(=O)OC(C)(C)C)C(OC)=C(C(=O)OC(C)(C)C)C2C1C(C(=O)OC(C)(C)C)=C(OC)C2(CC=C)C(=O)OC(C)(C)C (stereo unspecified) |  | > 100 µM |  | > 100 µM |  |  |  | > 100 µM |  | 
CCCCCCCCCCCCCCCCOP(=O)([O-])OCC[N+](C)(C)C | 25.8 µM | 62.2 µM | > 100 µM | 41.3 µM |  |  |  | 60.9 µM | 54.8 µM | TGI [10]: > 86.6 µM; TGI [11]: > 66.3 µM
CC1CC(C)C2OC2(C)C[C@H](C)C(=O)NC(C)C(=O)N(C)[C@H](Cc2c(Br)[nH]c3ccccc23)C(=O)N[C@@H](c2ccc(O)cc2)CC(=O)O1 (stereo partly specified) | 83.1 µM | > 100 µM | 0.763 µM |  | 13.3 µM | > 100 µM | > 50.1 µM | 4.31 µM |  | 
Cc1ccc(S(=O)(=O)OC(COC(=O)c2ccccc2)C(OS(=O)(=O)c2ccc(C)cc2)C(OS(=O)(=O)c2ccc(C)cc2)C(COC(=O)c2ccccc2)OS(=O)(=O)c2ccc(C)cc2)cc1 (stereo unspecified) | > 100 µM |  | > 100 µM | > 100 µM | > 100 µM |  | > 100 µM |  |  | 
Cc1nc(N)nc(N)c1CCCc1ccccc1 |  | > 100 µM | > 100 µM | > 100 µM | > 100 µM |  | > 100 µM | > 100 µM |  | 
C1CN(P2(N3CC3)=NP(N3CC3)(N3CC3)=NP(N3CC3)(N3CC3)=N2)CCO1 (stereo unspecified) | > 100 µM | > 100 µM | > 100 µM | > 100 µM | > 100 µM |  | > 100 µM | > 100 µM |  | 
Cc1cc(C)c(C(=O)O)c(SSc2cc(C)cc(C)c2C(=O)O)c1 | > 100 µM | > 100 µM | > 100 µM | > 100 µM | > 100 µM | > 100 µM | > 100 µM | > 100 µM |  | 
CCCCc1c2cnccc2c(CCCC)c2c1[nH]c1ccccc12 | 27.9 µM | > 100 µM | 77.8 µM | 24.9 µM | 25.6 µM |  | > 100 µM | 13.3 µM |  | 
NCCNC(=O)c1cccc2cc3ccccc3nc12 | > 100 µM | 18.6 µM | 37 µM | 5.34 µM | > 36.6 µM | 16.7 µM | 12.5 µM | 6.04 µM |  | 
Nc1nc(SCc2ccccc2Cl)cc(C(=O)O)n1 |  |  |  |  |  |  |  |  | > 100 µM | 
Cc1ccc2nc3cc(C)c(=O)cc-3sc2c1 | > 100 µM | > 100 µM | > 100 µM | 30.7 µM | > 100 µM |  | > 100 µM |  |  | 
COc1ccc2c(c1OC)C(C(Cl)(Cl)Cl)N1CCc3cc4c(cc3C1=C2)OCO4 (stereo unspecified) |  |  |  |  |  |  |  |  | 41 µM | 
CC1(C)OC(=O)C(C#N)=C1C[n+]1ccccc1 |  |  |  |  |  |  |  |  | > 10 µM | 
